Assays:
[1] = system: Echinochloa crusgaffi (ECHCG); assay: Post-emergence biological efficacy, glasshouse, 500 or 1000 g/ha, evaluated after 13 days (100=total damage to plant; 0=no damage to plant); type: in vivo; details: Echinochloa, 312 h, rate 1,000 g/ha, read-out: Percentage damage caused to weed species, post-emergence, ECHCG
How it was run: (§1)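 Weed seeds were sown in standard soil in pots and the plants treated post-emergence. Afterwards they were grown on in a controlled glasshouse at 24/16° C. day/night with 14 hours light and 65% humidity, and watered twice daily.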

[2] = system: Amaranthus retroflexus (AMARE); assay: as above; type: in vivo; details: Amaranthus retroflexus, 312 h, rate 1,000 g/ha, read-out: Percentage damage caused to weed species, post-emergence, AMARE
How it was run: as §1

[3] = system: Alopecurus myosuroides (ALOMY); assay: as above; type: in vivo; details: Alopecurus myosuroides, 312 h, rate 1,000 g/ha, read-out: Percentage damage caused to weed species, post-emergence, ALOMY
How it was run: as §1

[4] = system: Setaria faberi (SETFA); assay: as above; type: in vivo; details: Setaria faberi, 312 h, rate 1,000 g/ha, read-out: Percentage damage caused to weed species, post-emergence, SETFA
How it was run: as §1

[5] = system: Ipomoea hederaceae (IPOHE); assay: as above; type: in vivo; details: Ipomoea, 312 h, rate 1,000 g/ha, read-out: Percentage damage caused to weed species, post-emergence, IPOHE
How it was run: as §1

[6] = system: Solanum nigrum (SOLNI); assay: as above; type: in vivo; details: Solanum nigrum, 312 h, rate 1,000 g/ha, read-out: Percentage damage caused to weed species, post-emergence, SOLNI
How it was run: as §1

[7] = system: Amaranthus retroflexus (AMARE); assay: Pre-emergence biological efficacy, glasshouse, 1000 g/ha, evaluated after 13 days (100=total damage to plant; 0=no damage to plant); type: in vivo; details: Amaranthus retroflexus, 312 h, rate 1,000 g/ha, read-out: Percentage damage caused to weed species, pre-emergence, AMARE
How it was run: (§2)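 Standard soil in pots received the seeds. Growth took place in a glasshouse held at 24/16° C. day/night, 65% humidity and 14 h of light.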

[8] = system: Alopecurus myosuroides (ALOMY); assay: as above; type: in vivo; details: Alopecurus myosuroides, 312 h, rate 1,000 g/ha, read-out: Percentage damage caused to weed species, pre-emergence, ALOMY
How it was run: as §2

[9] = system: Setaria faberi (SETFA); assay: as above; type: in vivo; details: Setaria faberi, 312 h, rate 1,000 g/ha, read-out: Percentage damage caused to weed species, pre-emergence, SETFA
How it was run: as §2

[10] = system: Ipomoea hederaceae (IPOHE); assay: as above; type: in vivo; details: Ipomoea, 312 h, rate 1,000 g/ha, read-out: Percentage damage caused to weed species, pre-emergence, IPOHE
How it was run: as §2

[11] = system: Echinochloa crus-galli (ECHCG); assay: as above; type: in vivo; details: Echinochloa crus-galli, 312 h, rate 1,000 g/ha, read-out: Percentage damage caused to weed species, pre-emergence, ECHCG
How it was run: as §2

[12] = system: Solanum nigrum (SOLNI); assay: as above; type: in vivo; details: Solanum nigrum, 312 h, rate 1,000 g/ha, read-out: Percentage damage caused to weed species, pre-emergence, SOLNI
How it was run: as §2

`COc1c(Cl)ccc(-c2nc(C(=O)O)c3c(n2)N(C(C)C)CCN3C(C)C)c1F` [Compound 93-165, 4-Carboxy-2-(4-chloro-2-fluoro-3-methoxyphenyl)-5,8-diisopropyl-5,6,7,8-tetrahydropteridine] showed a pest or weed control at 1000 g/ha [1] of 20%, a pest or weed control at 1000 g/ha [2] of 20% and a pest or weed control at 1000 g/ha [3] of 10%. It also gave a pest or weed control at 1000 g/ha [4] of 30%, a pest or weed control at 1000 g/ha [5] of 20% and a pest or weed control at 1000 g/ha [6] of 30%. For the same compound, the pest or weed control at 1000 g/ha [7] was 0%, the pest or weed control at 1000 g/ha [8] was 0% and the pest or weed control at 1000 g/ha [9] was 0%. For the same compound, the pest or weed control at 1000 g/ha [10] was 10%, the pest or weed control at 1000 g/ha [11] was 0% and the pest or weed control at 1000 g/ha [12] was 0%.
With `COC(=O)c1nc(-c2ccc(Cl)c(OC)c2F)nc2c1N(C(C)C)CCN2C(C)C` [Compound 93-166, 2-(4-Chloro-2-fluoro-3-methoxyphenyl)-5,8-diisopropyl-4-methoxy-carbonyl-5,6,7,8-tetrahydropteridine] the pest or weed control at 1000 g/ha [1] was 10%, the pest or weed control at 1000 g/ha [2] was 0% and the pest or weed control at 1000 g/ha [3] was 20%. The pest or weed control at 1000 g/ha [4] was 30%, the pest or weed control at 1000 g/ha [5] was 10% and the pest or weed control at 1000 g/ha [6] was 10%. The melting point was 135 °C, the pest or weed control at 1000 g/ha [7] was 0% and the pest or weed control at 1000 g/ha [8] was 0%. For the same compound, the pest or weed control at 1000 g/ha [9] was 0%, the pest or weed control at 1000 g/ha [10] was 0% and the pest or weed control at 1000 g/ha [11] was 0%. It also gave a pest or weed control at 1000 g/ha [12] of 0%.
In the case of `COC(=O)c1nc(-c2ccc(Cl)c(OC)c2F)nc2c1NCCN2Cc1ccccc1` [Compound 95-162, 8-benzyl-2-(4-chloro-2-fluoro-3-methoxyphenyl)-4-methoxycarbonyl-5,6,7,8-tetrahydropteridine], the pest or weed control at 1000 g/ha [1] was 0%, the pest or weed control at 1000 g/ha [2] was 70% and the pest or weed control at 1000 g/ha [3] was 10%. The pest or weed control at 1000 g/ha [4] was 0%, the pest or weed control at 1000 g/ha [5] was 30% and the pest or weed control at 1000 g/ha [6] was 40%. The pest or weed control at 1000 g/ha [7] was 0%, the pest or weed control at 1000 g/ha [8] was 10% and the pest or weed control at 1000 g/ha [9] was 0%. It also gave a pest or weed control at 1000 g/ha [10] of 40%, a pest or weed control at 1000 g/ha [11] of 0% and a pest or weed control at 1000 g/ha [12] of 0%.
`COC(=O)c1nc(-c2ccc(Cl)c(OC)c2F)nc2c1OCCN2C` [Compound 106-74, 2-(4-Chloro-2-fluoro-3-methoxyphenyl)-4-methoxycarbonyl-8-methyl-7,8-dihydro-6H-pyrimido[5,4-b][1,4]oxazine] showed a pest or weed control at 1000 g/ha [1] of 0%, a pest or weed control at 1000 g/ha [2] of 0% and a pest or weed control at 1000 g/ha [3] of 0%. It also gave a pest or weed control at 1000 g/ha [4] of 0%, a pest or weed control at 1000 g/ha [5] of 0% and a pest or weed control at 1000 g/ha [6] of 0%. For the same compound, the pest or weed control at 1000 g/ha [7] was 0%, the pest or weed control at 1000 g/ha [8] was 0% and the pest or weed control at 1000 g/ha [9] was 0%. The pest or weed control at 1000 g/ha [10] was 0%, the pest or weed control at 1000 g/ha [11] was 0% and the pest or weed control at 1000 g/ha [12] was 0%.
`COC(=O)c1nc(-c2ccc(Cl)c(OC)c2F)nc2c1Nc1ccccc1N2` [Compound 119-168, 2-(4-chloro-2-fluoro-3-methoxyphenyl)-4-methoxycarbonyl-5,10-dihydro-benzo[g]pteridine] showed a pest or weed control at 1000 g/ha [1] of 0%, a pest or weed control at 1000 g/ha [2] of 10% and a pest or weed control at 1000 g/ha [3] of 0%. For the same compound, the pest or weed control at 1000 g/ha [4] was 0%, the pest or weed control at 1000 g/ha [5] was 40% and the pest or weed control at 1000 g/ha [6] was 30%. For the same compound, the pest or weed control at 1000 g/ha [7] was 0%, the pest or weed control at 1000 g/ha [8] was 0% and the pest or weed control at 1000 g/ha [9] was 0%. It also gave a pest or weed control at 1000 g/ha [10] of 0%, a pest or weed control at 1000 g/ha [11] of 0% and a pest or weed control at 1000 g/ha [12] of 0%.
`COC(=O)c1nc(-c2ccc(Cl)c(OC)c2F)nc2nc3ccccc3nc12` [Compound 125-76, 2-(4-chloro-2-fluoro-3-methoxyphenyl)-4-methoxycarbonyl-benzo[g]pteridine] showed a pest or weed control at 1000 g/ha [1] of 70%, a pest or weed control at 1000 g/ha [2] of 100% and a pest or weed control at 1000 g/ha [3] of 10%. It also gave a pest or weed control at 1000 g/ha [4] of 80%, a pest or weed control at 1000 g/ha [5] of 80% and a pest or weed control at 1000 g/ha [6] of 90%. For the same compound, the pest or weed control at 1000 g/ha [7] was 80%, the pest or weed control at 1000 g/ha [8] was 10% and the pest or weed control at 1000 g/ha [9] was 20%. For the same compound, the pest or weed control at 1000 g/ha [10] was 60%, the pest or weed control at 1000 g/ha [11] was 20% and the pest or weed control at 1000 g/ha [12] was 70%.

Reference: US20120202690A1, “HERBICIDAL COMPOUNDS” (SYNGENTA LIMITED, priority 2009, published 2012)
